In patent US20080171783A1, “COMPOSITIONS AND METHODS FOR TREATING HYPERPROLIFERATIVE DISEASE” (Migenix Inc., priority 2006, published 2008):

Legend:
Calf polymerase alpha = molecular target: T1, Calf polymerase alpha (Bos taurus, UniProt A0AAA9TD94); experiment: Calf polymerase alpha inhibition (Replizyme kit); type: biochemical; conditions: for inhibition at 10 µM: single point screening; for IC50: dose response
T1 construct: purchased Replizyme Ltd (Heslington, York, UK)
T1 sequence (A0AAA9TD94 1-1441): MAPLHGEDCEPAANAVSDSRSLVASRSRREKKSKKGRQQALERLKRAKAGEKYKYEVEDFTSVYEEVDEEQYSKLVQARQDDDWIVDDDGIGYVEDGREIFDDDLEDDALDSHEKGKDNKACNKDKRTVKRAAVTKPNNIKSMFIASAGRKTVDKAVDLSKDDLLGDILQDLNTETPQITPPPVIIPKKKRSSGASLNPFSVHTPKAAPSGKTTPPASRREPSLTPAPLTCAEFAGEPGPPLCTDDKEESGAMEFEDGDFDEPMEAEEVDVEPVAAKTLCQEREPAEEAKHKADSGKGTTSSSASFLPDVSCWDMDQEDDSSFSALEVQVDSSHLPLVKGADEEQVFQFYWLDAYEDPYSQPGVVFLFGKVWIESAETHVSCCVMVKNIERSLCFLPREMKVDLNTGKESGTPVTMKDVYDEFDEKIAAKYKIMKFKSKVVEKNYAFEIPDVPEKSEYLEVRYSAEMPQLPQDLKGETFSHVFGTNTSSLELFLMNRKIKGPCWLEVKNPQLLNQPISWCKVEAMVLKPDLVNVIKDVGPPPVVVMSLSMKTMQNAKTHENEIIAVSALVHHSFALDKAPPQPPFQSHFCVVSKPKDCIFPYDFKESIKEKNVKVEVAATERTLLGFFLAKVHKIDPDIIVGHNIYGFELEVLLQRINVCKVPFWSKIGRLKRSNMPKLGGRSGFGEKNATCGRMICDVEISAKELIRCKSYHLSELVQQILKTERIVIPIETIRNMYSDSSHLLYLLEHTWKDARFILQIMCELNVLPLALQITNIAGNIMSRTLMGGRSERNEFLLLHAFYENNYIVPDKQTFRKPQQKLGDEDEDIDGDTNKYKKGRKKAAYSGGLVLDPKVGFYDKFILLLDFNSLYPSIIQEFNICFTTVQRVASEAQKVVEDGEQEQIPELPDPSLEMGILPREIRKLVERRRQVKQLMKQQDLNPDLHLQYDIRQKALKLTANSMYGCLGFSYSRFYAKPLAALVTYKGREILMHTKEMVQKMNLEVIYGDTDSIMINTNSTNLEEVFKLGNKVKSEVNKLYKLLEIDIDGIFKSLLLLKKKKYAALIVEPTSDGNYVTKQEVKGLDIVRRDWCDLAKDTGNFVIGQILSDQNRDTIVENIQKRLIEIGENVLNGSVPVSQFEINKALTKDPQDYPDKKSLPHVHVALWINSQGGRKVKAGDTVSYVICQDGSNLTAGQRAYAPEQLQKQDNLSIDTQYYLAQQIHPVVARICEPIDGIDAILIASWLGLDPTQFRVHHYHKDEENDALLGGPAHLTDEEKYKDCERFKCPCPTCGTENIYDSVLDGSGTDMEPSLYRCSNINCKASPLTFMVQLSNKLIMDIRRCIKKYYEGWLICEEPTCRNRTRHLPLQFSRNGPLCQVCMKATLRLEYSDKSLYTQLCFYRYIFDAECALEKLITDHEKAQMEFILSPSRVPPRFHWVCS
Protocol: Calf polymerase alpha and human polymerase alpha investigations were performed with a kit available from Replizyme Ltd (Heslington, York, UK).

[1] = Cytotoxicity Huh-7 cells (MTS/PMS); type: cell-based; conditions: human, 3-day incubation
Protocol: Cytotoxicity of compounds for use in treating hyperproliferative diseases or disorders was tested in Huh-7 cells using tetrazolium salt MTS combined with the electron acceptor PMS in a 96-well format. Six doses of each compound was tested, starting at about 1.2 μM to 0.4 μM serially diluted in a final 1% DMSO solution in DMEM/F12 media. Terfenadine was used as a positive control. Cells were seeded at 2.5×10^5 cells/mL in each well of the 96-well plates in a final volume of 0.1 mL, and then incubated at 37° C. in the presence of 5% CO2 overnight. Compounds (in media) were added the following day and the treated cells were incubated another 3-days at 37° C. in the presence of 5% CO2. After the 3-day incubation, 20 μL of MTS/PMS (3-(4,5-dimethylthiazol-2-yl)-5-(3-carboxymethoxy-phenyl)-2-(4-sulfophenyl)-2H-tetrazolium) was added to each well. After about a one to four hour incubation of MTS/PMS at 37° C. and 5% CO2—that is, until an OD490 absorbance of ≧0.6 for the wells containing cells with media only, the level of cytotoxicity at each concentration was calculated. […] Dose response results from the cytotoxicity assay (CC50) are provided in Table 4 in comparison with IC50 data (from Table 2)

SMILES	inhibition at 10 µM (Calf polymerase alpha) [%]	CC50 at 3 days [1] [µM]	IC50 (Calf polymerase alpha) [µM]
CC(C)(C)c1ccc(NC(=O)[C@H](CCCCN)NC(=O)OCC2c3ccccc3-c3ccccc32)cc1 [Compound 105, (S)-[5-AMINO-1-(4-TERT-BUTYL-PHENYLCARBAMOYL)-PENTYL]-CARBAMIC ACID 9H-FLUOREN-9-YLMETHYL ESTER]	100	–	–
Cc1ccc(NC(=O)[C@@H](CCCCN)NC(=O)Nc2ccc3c(c2)Cc2ccccc2-3)cc1 [Compound 173, (R)-6-AMINO-2-[3-(9H-FLUOREN-2-YL)-UREIDO]-HEXANOIC ACID P-TOLYLAMIDE]	99	–	–
Cc1ccc(NC(=O)[C@H](CCCCN)NC(=O)Nc2ccc(OCc3ccccc3)cc2)cc1 [Compound 2, (S)-6-AMINO-2-[3-(4-BENZYLOXY-PHENYL)-UREIDO]-HEXANOIC ACID P-TOLYLAMIDE]	–	22.2	13
Cc1cc2cc(NC(=O)[C@H](CCCNC(=O)CN)NC(=O)Nc3ccc4c(c3)Cc3ccccc3-4)ccc2[nH]1 [Compound 297, (S)-5-(2-AMINO-ACETYLAMINO)-2-[3-(9H-FLUOREN-2-YL)-UREIDO]-PENTANOIC ACID (2-METHYL-1H-INDOL-5-YL)-AMIDE]	16.5	9.9	26
COC(=O)c1ccc(COc2ccc(NC(=O)N[C@@H](CCCCN)C(=O)Nc3ccc(C)cc3)cc2)cc1 [Compound 199, (S)-4-{4-[3-(5-AMINO-1-P-TOLYLCARBAMOYL-PENTYL)-UREIDO]-PHENOXYMETHYL}-BENZOIC ACID METHYL ESTER]	39.7	53	7.9
